Measurements reported in patent publication US12503437B2, “1,1-dimethyl-2-[(E)-2-phenylethenyl]-1H-benzo[e]indole derivatives and uses thereof” (Kaunas University of Technology, priority 2023, dated 2025).
Like-named read-outs stand apart in the source and are kept apart here.

Columns and labels:
[1] = system: G361 cells (human skin melanoma); test: MTT cell viability assay with photodynamic treatment; type: cell-based; conditions: 4 h treatment, further 72 h, MTT
Protocol: For photodynamic treatments, G361 cells (human skin melanoma) were cultivated in DMEM medium without phenol red supplemented with 10% fetal bovine serum, 100 U/mL penicillin, 100 μg/mL streptomycin, 2 mM glutamine, at 37° C. in 5% CO2 atmosphere. Cells were treated with test compounds and after 4 h were irradiated (the maximal wavelength emission of 414 nm and different total doses up to 10 J/cm^2). Further cultivation lasted for subsequent 16, 24 or 72 h.
Cell viability (EC50) was determined using the MTT (Sigma-Aldrich) assay in 96-well microplates. Cells were seeded, next day treated with test compounds for 4 h and subsequently irradiated (the maximal wavelength emission of 414 nm and total dose of 2.5 and 10 J/cm^2). After irradiation, the cells were incubated for further 72 h and then the MTT solution was added. Cells were incubated for another 4 h at 37° C. and then the 0.1% SDS was added to the wells to solubilize the violet formazan crystals. The measurement of absorbance was carried out on reader Tecan Infinite M200Pro at 570 nm. Dark viability was measured in parallel under the same conditions without irradiation.

[2] = Absorption and fluorescence properties in water; type: physicochemical; conditions: for λem: excitation wavelength 380 nm
Protocol: To determine the wavelength of light, at which 1,1-dimethyl-2-[(E)-2-phenylethenyl]-1H-benzo[e]indole derivatives should be irradiated for the investigation of their photodynamic activity, the absorption and fluorescence properties thereof were measured in water. The excitation wavelength λex was set to 380 nm. Based on the results an in-house constructed LED based light source specifically designed for the irradiation of 96-well microplates and Petri dishes (Tomecka et al., CZ302829B6, 2006) was chosen, with a maximal wavelength emission of 414 nm and light intensity set to 20 mW/cm^2.

[3] = G-361, dark kept G361 cells, read-out: G361 - EC50, Dark
[4] = G-361, light or radiation study, light irradiated (414 nm, 10 J/cm^2) G361 cells, irradiation, read-out: G361 - EC50, 10 J/cm^2

| Structure (SMILES) | EC50 [1, 3] | EC50 [1, 4] | Stokes shift [2] | λabs [2] | λem [2] |
| --- | --- | --- | --- | --- | --- |
| CC1(C)C(/C=C/c2ccccc2)=Nc2ccc3ccccc3c21 [Compound 3a, 1,1-Dimethyl-2-[(E)-2-phenylethenyl]-1H-benzo[e]indole] | 5.8 µM | 2 µM | 133 nm | 397 nm | 530 nm |
| CC1(C)C(/C=C/c2cc(C(F)(F)F)cc(C(F)(F)F)c2)=Nc2ccc3ccccc3c21 [Compound 3b, 2-{(E)-2-[3,5-Bis(trifluoromethyl)phenyl]ethenyl}-1,1-dimethyl-1H-benzo[e]indole] | > 10 µM | 1.3 µM | 109 nm | 400 nm | 509 nm |
| CC1(C)C(/C=C/c2cc([N+](=O)[O-])ccc2Cl)=Nc2ccc3ccccc3c21 [Compound 3c, 2-[(E)-2-(2-Chloro-5-nitrophenyl)ethenyl]-1,1-dimethyl-1H-benzo[e]indole] | 6.9 µM | 1.2 µM | 98 nm | 443 nm | 541 nm |
| CC1(C)C(/C=C/c2ccc(F)cc2)=Nc2ccc3ccccc3c21 [Compound 3d, 2-[(E)-2-(4-Fluorophenyl)ethenyl]-1,1-dimethyl-1H-benzo[e]indole] | 7.3 µM | 4.1 µM | 102 nm | 430 nm | 532 nm |
| CC1(C)C(/C=C/c2ccc(C(F)(F)F)cc2)=Nc2ccc3ccccc3c21 [Compound 3e, 1,1-Dimethyl-2-{(E)-2-[4-(trifluoromethyl)phenyl]ethenyl}-1H-benzo[e]indole] | 3.6 µM | 0.5 µM | 116 nm | 415 nm | 531 nm |
| COc1ccc(/C=C/C2=Nc3ccc4ccccc4c3C2(C)C)cc1[N+](=O)[O-] [Compound 3f, 2-[(E)-2-(4-Methoxy-3-nitrophenyl)ethenyl]-1,1-dimethyl-1H-benzo[e]indole] | 4.9 µM | 0.2 µM | 146 nm | 403 nm | 549 nm |
| CC1(C)C(/C=C/c2ccc(Cl)c([N+](=O)[O-])c2)=Nc2ccc3ccccc3c21 [Compound 3h, 2-[(E)-2-(4-Chloro-3-nitrophenyl)ethenyl]-1,1-dimethyl-1H-benzo[e]indole] | 7.2 µM | 0.3 µM | 106 nm | 426 nm | 532 nm |
| CC1(C)C(/C=C/c2ccc(F)c([N+](=O)[O-])c2)=Nc2ccc3ccccc3c21 [Compound 3i, 2-(E)-2-(4-Fluoro-3-nitrophenyl)ethenyl-1,1-dimethyl-1H-benzo[e]indole] | 7.8 µM | 2.1 µM | 126 nm | 399 nm | 525 nm |
| CC1(C)C(/C=C/c2ccc(F)c(C#N)c2)=Nc2ccc3ccccc3c21 [Compound 3j, 5-[(E)-2-(1,1-Dimethyl-1H-benzo[e]indol-2-yl)ethenyl]-2-fluorobenzonitrile] | 5.1 µM | 1.3 µM | 154 nm | 369 nm | 523 nm |
| Cc1ccc(/C=C/C2=Nc3ccc4ccccc4c3C2(C)C)cc1[N+](=O)[O-] [Compound 3k, 1,1-Dimethyl-2-[(E)-2-(4-methyl-3-nitrophenyl)ethenyl]-1H-benzo[e]indole] | 6.9 µM | 1.3 µM | 98 nm | 425 nm | 523 nm |
| CC1(C)C(/C=C/c2ccc3ccccc3c2)=Nc2ccc3ccccc3c21 [Compound 3l, 1,1-Dimethyl-2-[(E)-2-(naphthalen-2-yl)ethenyl]-1H-benzo[e]indole] | > 10 µM | 1.3 µM | 86 nm | 437 nm | 523 nm |
| CC1(C)C(/C=C/c2cccc([N+](=O)[O-])c2)=Nc2ccc3ccccc3c21 [Compound 3m, 1,1-Dimethyl-2-[(E)-2-(3-nitrophenyl)ethenyl]-1H-benzo[e]indole] | 2.1 µM | 0.3 µM | 89 nm | 424 nm | 513 nm |
| CC1(C)C(/C=C/c2cccc(C(F)(F)F)c2)=Nc2ccc3ccccc3c21 [Compound 3n, 1,1-Dimethyl-2-{(E)-2-[3-(trifluoromethyl)phenyl]ethenyl}-1H-benzo[e]indole] | 7.8 µM | 1.3 µM | 94 nm | 426 nm | 520 nm |
| CC1(C)C(/C=C/c2cccc3ccccc23)=Nc2ccc3ccccc3c21 [Compound 3o, 1,1-Dimethyl-2-[(E)-2-(naphthalen-1-yl)ethenyl]-1H-benzo[e]indole] | > 10 µM | 0.4 µM | 113 nm | 445 nm | 558 nm |
| CC1(C)C(/C=C/c2ccccc2[N+](=O)[O-])=Nc2ccc3ccccc3c21 [Compound 3p, 1,1-Dimethyl-2-[(E)-2-(2-nitrophenyl)ethenyl]-1H-benzo[e]indole] | 7.8 µM | 1.1 µM | 132 nm | 434 nm | 566 nm |
